Measured values from patent US12655174B2, “Adenosine A3 receptor agonists, preparation methods and uses thereof” (ZHEJIANG VIMGREEN PHARMACEUTICALS, LTD., priority 2020, dated 2026).

Biological target: T1, ADORA3 receptor (CHO cells stably expressing ADORA3 receptor) (Homo sapiens, UniProt P0DMS8)
T1 construct: expressed in transfected cells
T1 sequence (P0DMS8 1-318): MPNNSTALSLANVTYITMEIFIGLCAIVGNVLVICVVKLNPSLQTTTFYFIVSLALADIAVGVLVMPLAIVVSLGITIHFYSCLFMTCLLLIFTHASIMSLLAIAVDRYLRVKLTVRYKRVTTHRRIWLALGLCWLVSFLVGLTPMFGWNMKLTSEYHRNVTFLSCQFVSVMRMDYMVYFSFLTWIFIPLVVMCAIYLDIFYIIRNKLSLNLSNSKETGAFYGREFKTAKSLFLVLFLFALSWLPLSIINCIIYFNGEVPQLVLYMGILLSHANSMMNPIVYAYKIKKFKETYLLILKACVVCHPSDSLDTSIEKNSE
Experiment: Effect of compound on intracellular cAMP level by adenosine A3 receptor agonism
Type: cell-based
Details: forskolin-stimulated
Description: Example 26: Test the Effect of Compound on Intracellular cAMP Level by Adenosine A3 Receptor Agonism
• 1) 1×HBSS with Ca2+ and Mg2+ (14 mL), 1 M HEPES (75 μL), a 7.5% (w/v) BSA stabilizer (pH 7.4, 200 μL), and 20 mM rolipram (7.5 μL) were respectively prepared as cAMP assay buffer. • 2) Preparation of compound source plate • a. […] A 10 mM stock solution was subjected to a 3-fold serial dilution by 100% (v/v) DMSO to prepare 10 doses of the test substance. • c. 1 mM of Forskolin was prepared by 100% (v/v) DMSO. • 3) Preparation of test plate • a. Prior to the assay, CHO cells stably expressing ADORA3 receptor were harvested and the cells were counted by using a Countess cell counter. […] The cells were seeded at a density of 2,000 cells/well in a 384-well plate. • 4) 10 nL/well of the serially diluted compound and 10 nL/well of 1 mM of forskolin were transferred to each well with ADORA3 receptor expressing cells by using Echo550. • 5) A cell plate was centrifuged at 1,000 rpm for 1 minute and then stirred at 600 rpm for 2 minutes. The plate was incubated at 37° C. • 6) An Eu-cAMP tracer working solution and an Ulight-anti-cAMP working solution were prepared according to the following table.
• 7) 5 μl/well of the Eu-cAMP tracer working solution and 5 μl/well of the Ulight-anti-cAMP working solution were added to each well of the plate. […] 2. Data Analysis • 1) An activation percentage was calculated by using the following formula:
[formula] • % Activation: activation percentage • Ratiocpd: ratio of emissivity of test compound • RatioLow control: ratio of low emissivity • RatioHigh control: ratio of high emissivity • 2) EC50 was calculated by an XLfit using the Hill equation to fit the activity percentage and a log of a compound concentration. 3. Test Result

Row | Compound | EC50 [nM]
1 | CNC(=O)[C@H]1O[C@@H](n2cnc3c(NCc4cccc(Cl)n4)nc(-c4cccnc4)nc32)[C@H](O)[C@@H]1O [compound 247] | 4.16
2 | CNC(=O)[C@H]1OC(n2cnc3c(NCc4ccccc4)nc(-c4ccccn4)nc32)[C@H](O)[C@@H]1O (stereo in doubt) [compound 325, (2S,3S,4R,5S)-5-(6-(benzylamino)-2-(pyridin-2-yl)-9H-purin-9-yl)-3,4-dihydroxyl-N-methyltetrahydrofuran-2-carboxamide] | 9.62
3 | [2H]C([2H])([2H])NC(=O)[C@H]1O[C@@H](n2cnc3c(NCc4cccc(CC)c4)nc(-c4cncc(Cl)c4)nc32)[C@H](O)[C@@H]1O [compound 223, (2S,3S,4R,5R)-5-(2-(5-chloropyridin-3-yl)-6-((3-ethylbenzyl)amino)-9H-purin-9-yl)-3,4-dihydroxyl-N-(methyl-d3)-tetrahydrofuran-2-carboxamide] | 15.2
4 | [2H]C([2H])([2H])NC(=O)[C@H]1O[C@@H](n2cnc3c(NCc4cc(F)ccc4Cl)nc(-c4cncc(Cl)c4)nc32)[C@H](O)[C@@H]1O [compound 246, (2S,3S,4R,5R)-5-(6-(2-chloro-5-fluorobenzylamino)-2-(5-chloropyridin-3-yl)-9H-purin-9-yl)-3,4-dihydroxyl-N-(methyl-d3)-tetrahydrofuran-2-carboxamide] | 1.18
5 | [2H]C([2H])([2H])NC(=O)[C@H]1O[C@@H](n2cnc3c(NCc4cccc(C)c4)nc(-c4cncc(CC)c4)nc32)[C@H](O)[C@@H]1O [compound 282, (2S,3S,4R,5R)-5-(2-(5-ethylpyridin-3-yl)-6-((3-methylbenzyl)amino)-9H-purin-9-yl)-3,4-dihydroxyl-N-(methyl-d3)tetrahydrofuran-2-formamide] | 4
6 | CNC(=O)[C@H]1O[C@@H](n2cnc3c(NC)nc(-c4cccnc4)nc32)[C@H](O)[C@@H]1O [compound 102, (2S,3S,4R,5R)-3,4-dihydroxyl-N-methyl-5-(6-(methylamino)-2-(pyridin-3-yl)-9H-purin-9-yl)tetrahydrofuran-2-carboxamide] | 1.41
7 | [2H]C([2H])([2H])NC(=O)[C@H]1O[C@@H](n2cnc3c(NCc4cccc(C)c4)nc(-c4cncc(OC)c4)nc32)[C@H](O)[C@@H]1O [compound 302] | 2.26
8 | [2H]C([2H])([2H])NC(=O)[C@H]1O[C@@H](n2cnc3c(NCc4cc(C)cc(C)c4)nc(-c4cncc(Cl)c4)nc32)[C@H](O)[C@@H]1O [compound 224, (2S,3S,4R,5R)-5-(2-(5-chloropyridin-3-yl)-6-((3,5-dimethylbenzyl)amino)-9H-purin-9-yl)-3,4-dihydroxyl-N-(methyl-d3)-tetrahydrofuran-2-carboxamide] | 1.34

System: not listed separately
Experiment: Pharmacokinetic test of compound in SD rat
Type: in vivo
Details: SD rats, intragastric administration (IG), cassette dosing
Description: Example 28: Pharmacokinetic Test of Compound in SD Rat
The animal species used in this experiment were SD rats. There were 3 animals per group. The rats were dosed in cassette format, i.e., multiple (1-6) different compounds were dosed simultaneously to the same group of the SD rats. The vehicle used for the drug was 5% DMSO+5% Solutl+90% ([…] methylcellulose M450), and the administration route was intragastric administration (IG).

Row | Compound | AUC_D [kg·ng·h/mL/mg]
9 | [2H]C([2H])([2H])NC(=O)[C@H]1O[C@@H](n2cnc3c(N[C@H](C)c4ccccc4)nc(-c4cncc(Cl)c4)nc32)[C@H](O)[C@@H]1O [compound 251] | 610.00
10 | CNC(=O)[C@H]1O[C@@H](n2cnc3c(NCc4ccccc4)nc(-c4ccc(F)c(F)c4)nc32)[C@H](O)[C@@H]1O [compound 143, (2S,3S,4R,5R)-5-(6-(benzylamino)-2-(3,4-difluorophenyl)-9H-purin-9-yl)-3,4-dihydroxyl-N-methyltetrahydrofuran-2-carboxamide] | 80.00
11 | [2H]C([2H])([2H])NC(=O)[C@H]1O[C@@H](n2cnc3c(NCc4ccccc4)nc(-c4cncc(OC)c4)nc32)[C@H](O)[C@@H]1O [compound 33, (2S,3S,4R,5R)-5-(6-(benzylamino)-2-(5-methoxypyridin-3-yl)-9H-purin-9-yl)-3,4-dihydroxyl-N-(methyl-d3)-tetrahydrofuran-2-formamide] | 1578.00
12 | CNC(=O)[C@H]1O[C@@H](n2cnc3c(NCc4ccccc4)nc(-c4cncc([N+](=O)[O-])c4)nc32)[C@H](O)[C@@H]1O [compound 152, (2S,3S,4R,5R)-5-(6-(benzylamino)-2-(5-nitropyridin-3-yl)-9H-purin-9-yl)-3,4-dihydroxyl-N-methyltetrahydrofuran-2-carboxamide] | 1352.37
13 | [2H]C([2H])([2H])NC(=O)[C@H]1O[C@@H](n2cnc3c(NCc4cccc(I)c4)nc(-c4cncc(Cl)c4)nc32)[C@H](O)[C@@H]1O [compound 250, (2S,3S,4R,5R)-5-(2-(5-chloropyridin-3-yl)-6-((3-iodobenzyl)amino)-9H-purin-9-yl)-3,4-dihydroxyl-N-(methyl-d3)tetrahydrofuran-2-carboxamide] | 2137.00
14 | [2H]C([2H])([2H])NC(=O)[C@H]1O[C@@H](n2cnc3c(NCc4cccc(Br)c4)nc(-c4cncc(Cl)c4)nc32)[C@H](O)[C@@H]1O [compound 248, (2S,3S,4R,5R)-5-(6-((3-bromobenzyl)amino)-2-(5-chloropyridin-3-yl)-9H-purin-9-yl)-3,4-dihydroxyl-N-(methyl-d3)tetrahydrofuran-2-carboxamide] | 3298.00
15 | CNC(=O)[C@H]1O[C@@H](n2cnc3c(NCc4cccc(C(F)(F)F)c4)nc(-c4cncc(F)c4)nc32)[C@H](O)[C@@H]1O [compound 180, (2S,3S,4R,5R)-5-(6-(3-(trifluoromethyl)benzylamino)-2-(5-fluoropyridin-3-yl)-9H-purin-9-yl)-3,4-dihydroxyl-N-methyl-tetrahydrofuran-2-formamide] | 81.74
16 | CNC(=O)[C@H]1O[C@@H](n2cnc3c(NCc4ccccc4)nc(-c4cncc(C)c4)nc32)[C@H](O)[C@@H]1O [compound 118, (2S,3S,4R,5R)-5-(6-(benzylamino)-2-(5-methylpyridin-3-yl)-9H-purin-9-yl)-3,4-dihydroxyl-N-methyltetrahydrofuran-2-carboxamide] | 347.00
17 | [2H]C([2H])([2H])NC(=O)[C@H]1O[C@@H](n2cnc3c(NCc4ccccc4)nc(-c4ccoc4)nc32)[C@H](O)[C@@H]1O [compound 11, (2S,3S,4R,5R)-5-(6-(benzylamino)-2-(furan-3-yl)-9H-purin-9-yl)-3,4-dihydroxyl-N-(methyl-d3)-tetrahydrofuran-2-formamide] | 174.00
18 | [2H]C([2H])([2H])NC(=O)[C@H]1O[C@@H](n2cnc3c(NCc4ccc(C(F)(F)F)cc4)nc(-c4cncc(Cl)c4)nc32)[C@H](O)[C@@H]1O [compound 165, (2S,3S,4R,5R)-5-(6-(4-(trifluoromethyl)benzylamino)-2-(5-chloropyridin-3-yl)-9H-purin-9-yl)-3,4-dihydroxyl-N-(methyl-d3)-tetrahydrofuran-2-formamide] | 564.70
19 | [2H]C([2H])([2H])NC(=O)[C@H]1O[C@@H](n2cnc3c(N[C@@H](C)c4ccccc4)nc(-c4cncc(Cl)c4)nc32)[C@H](O)[C@@H]1O [compound 252] | 532.00
20 | CNC(=O)[C@H]1O[C@@H](n2cnc3c(NCc4ccccc4)nc(-c4cccnc4)nc32)[C@H](O)[C@@H]1O [compound 110, (2S,3S,4R,5R)-5-(6-(benzylamino)-2-(pyridin-3-yl)-9H-purin-9-yl)-3,4-dihydroxyl-N-methyltetrahydrofuran-2-carboxamide] | 276.50
